Experimental data from patent publication US12060336B1, “(2E)-4-[(4-chlorophenyl)amino]-N-phenyl-2-(phenylimino)-1,3,5-dioxazepine-7-carboxamide as an eco-friendly insecticidal agent against Spodoptera littoralis (boisd.)” (King Faisal University, priority 2023, dated 2024).
In brackets after ≈: the same amount, converted by molar mass. Read-outs that look alike come from different tables or passages of the source.

Experiments:
[1] = test system: Spodoptera littoralis larvae; assay: Insecticidal leaf dip bioassay screening; settings: for Toxicity index %: 72 hours, fenoxycarb's LC50/compound's LC50 * 100; for LC50: Spodoptera littoralis, foliar, 72 h
Experimental: Five concentrations (200, 100, 50, 25, 12.5 ppm) were designed for this synthetic compound and the reference fenoxycarb's compound as the dynamic ingredients based on ppm via diluting the commercial formulation.
In this experiment, the synthetic compound was tested for its insecticidal bioactivity using the industry-standard leaf dip bioassay techniques. Preparation of the compound stocks to create 1000 ppm, 0.1 g of compounds 2 were dissolved in five mL of Dimethyl formamide & combined with 5 mL of distilled water. Until usage, the stocks were kept in a refrigerator. The target substance test results were noted & the concentrations needed to destroy 50% (LC50) of S. littoralis larvae were calculated. The target compound was employed in five different concentrations, & 0.1% Tween 80 was employed as a surfactant. Castor bean leaf discs (nine centimeters in diameter) were dipped in the concentration under test for ten seconds, then fed to 2th & 4th larvae, which were roughly the same size and housed in glass jars (five pound). Each action carried out 3 times with ten larvae each. The mortality equalized via Abbott's formula. Calculations of mortality setback line were measurably rummage via probity analysis. Harmfulness index was strongminded via sun equations. The mortality results of larval insect were estimated through employing probit analysis through a statistics (LDP-line) equation which estimate the LC50 values with 95% fiducially limits of lower, upper confidence limit and slope.

aquatic insects = settings: cited from earlier work
[2] = read-out: LC50 (mg/L) at 95%, 2nd instar larvae, laboratory strain S. littoralis, after 72 hours of treatment
[3] = read-out: LC50 (mg/L) at 95%, 4th instar larvae, laboratory strain S. littoralis, after 72 hours of treatment

O=C(Nc1ccccc1)C1=CN=C(Nc2ccc(Cl)cc2)O/C(=N/c2ccccc2)O1 [Compound 2, (2E)-4-[(4-chlorophenyl)amino]-N-phenyl-2-(phenylimino)-1,3,5-dioxazepine-7-carboxamide]
activity against Spodoptera littoralis ([1]; 2nd and 4th instar larvae, FIGS. 1A-1B, compared with Fenoxycarb): active against Spodoptera littoralis | Toxicity index % ([1]; 2nd instar larvae): 10.31% | Toxicity index % ([1]; 4th instar larvae): 23.54% | LC50 [1, 2]: 57.6 mg/L (≈ 133 µM) | LC50 [1, 3]: ~254 mg/L (≈ 588 µM)

CCOC(=O)NCCOc1ccc(Oc2ccccc2)cc1 [fenoxycarb, reference compound]
Toxicity index % ([1]; 2nd instar larvae): 100% | Toxicity index % ([1]; 4th instar larvae): 100% | LC50 [1, 2]: 5.94 mg/L (≈ 19.7 µM) | LC50 [1, 3]: 59.9 mg/L (≈ 199 µM)

CCc1ccc(C(=O)NN(C(=O)c2cc(C)cc(C)c2)C(C)(C)C)cc1 [tebufenozide]
LC50 (aquatic insects): 100 to 1000 mg/L
